# In ChEMBL document CHEMBL4000181, “Synthesis and biological screening of novel 2-morpholinoquinoline nucleus clubbed with 1,2,4-oxadiazole motifs” (Eur J Med Chem, 2017):
# Legend:
# Streptococcus pneumoniae = assay: Antibacterial activity against Streptococcus pneumoniae MTCC 1936 after 24 to 48 hrs by broth microdilution method; type: functional
# Salmonella typhi = assay: Antibacterial activity against Salmonella typhi MTCC 98 after 24 to 48 hrs by broth microdilution method; type: functional, Salmonella enterica subsp. enterica serovar Typhi; settings: Salmonella enterica
# Escherichia coli = assay: Antibacterial activity against Escherichia coli MTCC 443 after 24 to 48 hrs by broth microdilution method; type: functional
# Bacillus subtilis = assay: Antibacterial activity against Bacillus subtilis MTCC 441 after 24 to 48 hrs by broth microdilution method; type: functional
# Vibrio cholerae = assay: Antibacterial activity against Vibrio cholerae MTCC 3906 after 24 to 48 hrs by broth microdilution method; type: functional
# Aspergillus fumigatus = assay: Antifungal activity against Aspergillus fumigatus MTCC 3008 after 24 to 48 hrs by broth microdilution method; type: functional
# [1] = system: Schizosaccharomyces pombe; assay: Toxicity in Schizosaccharomyces pombe Var. Paul Linder 3360 assessed as dead cells at 2.5 to 12.5 ug/ml after 17 hrs by trypan blue dye-based microscopic method
# Clostridium tetani = assay: Antibacterial activity against Clostridium tetani MTCC 449 after 24 to 48 hrs by broth microdilution method; type: functional
# Candida albicans = assay: Antifungal activity against Candida albicans MTCC 227 after 24 to 48 hrs by broth microdilution method; type: functional
Compound,MIC (Streptococcus pneumoniae) [µM],MIC (Salmonella typhi) [µM],MIC (Escherichia coli) [µM],MIC (Bacillus subtilis) [µM],MIC (Vibrio cholerae) [µM],MIC (Aspergillus fumigatus) [µM],Activity [1],MIC (Clostridium tetani) [µM],MIC (Candida albicans) [µM]
O=C(O)c1cn(C2CC2)c2cc(N3CCNCC3)c(F)cc2c1=O [CIPROFLOXACIN],31,31,31,310,31,–,–,–,–
Brc1ccc(-c2nc(-c3cc4ccccc4nc3N3CCOCC3)no2)cc1,286,228,572,457,228,2290,Non-Toxic,572,1120
COc1ccc(-c2nc(-c3cc4cc(C)ccc4nc3N3CCOCC3)no2)cc1,310,248,497,621,497,2490,–,621,1240
c1ccc(-c2nc(-c3cc4ccccc4nc3N3CCOCC3)no2)cc1,698,1400,279,1400,1400,1400,–,1400,2790
Cc1ccc2nc(N3CCOCC3)c(-c3noc(-c4ccc(C(F)(F)F)cc4)n3)cc2c1,454,454,227,454,227,1140,Non-Toxic,568,568
Cc1ccc2nc(N3CCOCC3)c(-c3noc(-c4ccc(Cl)cc4)n3)cc2c1,246,246,153,153,153,246,Toxic,200,246
Cc1ccc2nc(N3CCOCC3)c(-c3noc(-c4ccccc4)n3)cc2c1,672,1340,672,1340,268,1340,–,268,2690
O=[N+]([O-])c1ccc(-c2nc(-c3cc4ccccc4nc3N3CCOCC3)no2)cc1,248,155,620,155,620,248,Toxic,155,1130
FC(F)(F)c1cccc(-c2nc(-c3cc4ccccc4nc3N3CCOCC3)no2)c1,234,146,234,234,234,234,–,469,1130
O=C(N[C@H](CO)[C@H](O)c1ccc([N+](=O)[O-])cc1)C(Cl)Cl [CHLORAMPHENICOL],150,75,75,150,75,–,–,301,–
Cc1ccc2nc(N3CCOCC3)c(-c3noc(-c4cccc(C(F)(F)F)c4)n3)cc2c1,227,568,454,568,568,1140,Non-Toxic,1140,2270
FC(F)(F)c1ccc(-c2nc(-c3cc4ccccc4nc3N3CCOCC3)no2)cc1,146,146,586,146,586,146,–,146,2350
CC1(C)S[C@@H]2[C@H](NC(=O)[C@H](N)c3ccccc3)C(=O)N2[C@H]1C(=O)O [AMPICILLIN],286,286,286,715,286,–,–,715,–
Cc1ccc2nc(N3CCOCC3)c(-c3noc(-c4ccc([N+](=O)[O-])cc4)n3)cc2c1,149,599,239,239,239,1200,Toxic,149,1140
COc1ccc(-c2nc(-c3cc4ccccc4nc3N3CCOCC3)no2)cc1,1290,515,257,257,644,2580,Non-Toxic,1290,2580
NYSTATIN,–,–,–,–,–,107,–,–,107
Cc1ccc2nc(N3CCOCC3)c(-c3noc(-c4ccc(Br)cc4)n3)cc2c1,221,443,138,1110,554,1110,–,221,2340
CCn1cc(C(=O)O)c(=O)c2cc(F)c(N3CCNCC3)cc21 [NORFLOXACIN],154,154,154,154,154,–,–,154,–
COC1=CC(=O)C[C@@H](C)[C@]12Oc1c(Cl)c(OC)cc(OC)c1C2=O [GRISEOFULVIN],–,–,–,–,–,283,–,–,1150
Clc1ccc(-c2nc(-c3cc4ccccc4nc3N3CCOCC3)no2)cc1,159,255,510,255,255,255,Toxic,159,637
